Columns and labels:
[1] = Isothermal microcalorimeter titration of oxaliplatin and cucurbitu[7]ril; type: physicochemical; settings: 25° C., 20 mM oxaliplatin, 1 mM cucurbitu[7]ril
[2] = tested on: SKOV-3 human ovarian tumor cells; test: SRB (sulforhodamine B) assay, antiproliferative activity, SKOV-3; type: cell-based
Method: (§1) Anticancer activities of the inclusion compounds synthesized in Synthesis Examples 1 and 2 were measured as follows.
(§2) First, the oxaliplatin-cucurbitu[7]ril inclusion compounds synthesized in Synthesis Examples 1 and 2, were freeze-dried to prepare samples. Tumor cells used were A 549 (human non-small cell lung), SKOV-3 (human ovarian), SKMEL-2 (human melanoma), XF498 (human CNS), and HCT-15 (human colon), and analyzed by SRB (sulforhodamine B) assay.

[3] = tested on: HCT-15 human colon tumor cells; test: SRB (sulforhodamine B) assay, antiproliferative activity, HCT-15; type: cell-based
Method: as §1, §2

[4] = tested on: XF-498 human CNS tumor cells; test: SRB (sulforhodamine B) assay, antiproliferative activity, XF-498; type: cell-based
Method: as §1, §2

[5] = tested on: SKMEL-2 human melanoma tumor cells; test: SRB (sulforhodamine B) assay, antiproliferative activity, SKMEL-2; type: cell-based
Method: as §1, §2

[6] = tested on: A549 human non-small cell lung tumor cells; test: SRB (sulforhodamine B) assay, antiproliferative activity, A549; type: cell-based
Method: as §1, §2

N[C@@H]1CCCC[C@H]1N.O=C([O-])C(=O)[O-].[Pt+2] (relative stereo) [Oxaliplatin, (trans-L-diaminocyclohexane)oxalatoplatinum (II)]
binding constant [1]: 2.39×10^5(±0.4) M^−1 | binding enthalpy [1]: -6.33 kcal/mol | Antiproliferative activity (ED50/μM) [2]: 0.67 µM | Antiproliferative activity (ED50/μM) [3]: 0.90 µM | Antiproliferative activity (ED50/μM) [4]: 0.49 µM | Antiproliferative activity (ED50/μM) [5]: 0.97 µM | Antiproliferative activity (ED50/μM) [6]: 0.42 µM

N.N.[Cl][Pt][Cl] [Cisplatin]
Antiproliferative activity (ED50/μM) [2]: 2.87 µM | Antiproliferative activity (ED50/μM) [3]: 1.32 µM | Antiproliferative activity (ED50/μM) [4]: 0.46 µM | Antiproliferative activity (ED50/μM) [5]: 3.08 µM | Antiproliferative activity (ED50/μM) [6]: 1.17 µM
